Test system: Menschlicher Saccus endolymphaticus
Test: Light-microscopic autoradiography of 125I-arginine-vasopressin binding on frozen tissue sections
Parameters: species or system menschlich
Conditions: overnight at 4 °C; unspecific binding checked with 10 µM unlabelled Arginin-Vasopressin
Protocol: Menschlicher Saccus endolymphaticus wurde von sechs Autopsien und zwei operierten Patienten mit Einwilligung der Verwandten bzw. der Patienten erhalten. Gefrorene Schnitte (20 µm) wurden auf einem Kryostaten bei -16 °C geschnitten, auf Gelatine-beschichtete Plättchen aufgebracht und über Nacht unter Vakuum bei 4 °C gelagert. […] Die radiomarkierten Schnitte wurden mit NTB-2 Nuklearemulsion (Eastman Kodak) beschichtet und für die lichtmikroskopische Autoradiographie präpariert. Die beschichteten Plättchen wurden in der Dunkelheit bei 4 °C für drei bis acht Tage gelagert. Nach Entwickeln und Fixieren wurden die Plättchen mit Haematoxylin/Eosin gefärbt.

^125I-Arginin-Vasopressin [radioaktivem Vasopressin]
Bindung im Epithel des endolymphatischen Sacks: spezifische Bindung

From patent publication EP1028725B1, “USE OF VASOPRESSIN ANTAGONISTS FOR TREATING DISTURBANCES OR ILLNESSES OF THE INNER EAR” (Otogene Aktiengesellschaft, priority 1997, dated 2004)
